According to patent US20250066350A1, “AROMATIC HETEROCYCLE-SUBSTITUTED COMPOUNDS, AND PREPARATION METHOD THEREFOR AND USE THEREOF” (Innovstone Therapeutics Limited, priority 2021, published 2025):

molecular target: ATR enzyme (Homo sapiens (Human), UniProt Q13535); assay: Inhibitory effect on ATR enzyme (HTRF, phospho-P53); assay type: biochemical; conditions: 90 minutes incubation, 150 nM ATP final; read-out: IC50 for ATR enzyme inhibition
Method: Test Example 1. Inhibitory Effect of Compounds of the Present Invention on ATR Enzyme
The following method is used to determine the inhibitory effect of the compounds of the present invention on the ATR enzyme. The experimental method is briefly described as follows:
1. ATR enzyme (Eurofins Pharma Discovery Services, 14-953M)
2. GST-tagged P53 protein (Eurofins Pharma Discovery Services, 14-952M)
15 nM ATR enzyme, 80 nM P53 protein, 300 nM ATP (the final concentrations were 40 nM and 150 nM, respectively), and small molecule compounds of various concentrations (the final concentrations (nM) of the ten points were 2985.0, 895.5, 298.5, 110.56, 33.17, 11.06, 4.09, 1.23, 0.41 and 0.15, respectively, and the final dimethyl sulfoxide concentration was 0.498%) were mixed and incubated at room temperature for 90 minutes. 10 μL of 2× cocktail buffer was added to the mixture of ATR, compound and substrate in the assay plate (anti-phospho-p53-Eu and anti-GST-d2 were diluted in the assay buffer). The resulting mixture was centrifuged at 1000 rpm for 30 seconds, and incubated overnight at 4° C. in the dark (a total of 20 μl in each well). The FRET signal (endpoint) was measured in the Envision instrument (HTRF 665/612 ratio was calculated at 665 nm emission and 612 nm emission). Data were processed using GraphPad software.
The inhibitory activity of the compounds of the present invention on the ATR enzyme can be determined by the test described above, and the measured IC50 values are shown in Table 1.

Chain of ATR enzyme (Q13535 whole entry): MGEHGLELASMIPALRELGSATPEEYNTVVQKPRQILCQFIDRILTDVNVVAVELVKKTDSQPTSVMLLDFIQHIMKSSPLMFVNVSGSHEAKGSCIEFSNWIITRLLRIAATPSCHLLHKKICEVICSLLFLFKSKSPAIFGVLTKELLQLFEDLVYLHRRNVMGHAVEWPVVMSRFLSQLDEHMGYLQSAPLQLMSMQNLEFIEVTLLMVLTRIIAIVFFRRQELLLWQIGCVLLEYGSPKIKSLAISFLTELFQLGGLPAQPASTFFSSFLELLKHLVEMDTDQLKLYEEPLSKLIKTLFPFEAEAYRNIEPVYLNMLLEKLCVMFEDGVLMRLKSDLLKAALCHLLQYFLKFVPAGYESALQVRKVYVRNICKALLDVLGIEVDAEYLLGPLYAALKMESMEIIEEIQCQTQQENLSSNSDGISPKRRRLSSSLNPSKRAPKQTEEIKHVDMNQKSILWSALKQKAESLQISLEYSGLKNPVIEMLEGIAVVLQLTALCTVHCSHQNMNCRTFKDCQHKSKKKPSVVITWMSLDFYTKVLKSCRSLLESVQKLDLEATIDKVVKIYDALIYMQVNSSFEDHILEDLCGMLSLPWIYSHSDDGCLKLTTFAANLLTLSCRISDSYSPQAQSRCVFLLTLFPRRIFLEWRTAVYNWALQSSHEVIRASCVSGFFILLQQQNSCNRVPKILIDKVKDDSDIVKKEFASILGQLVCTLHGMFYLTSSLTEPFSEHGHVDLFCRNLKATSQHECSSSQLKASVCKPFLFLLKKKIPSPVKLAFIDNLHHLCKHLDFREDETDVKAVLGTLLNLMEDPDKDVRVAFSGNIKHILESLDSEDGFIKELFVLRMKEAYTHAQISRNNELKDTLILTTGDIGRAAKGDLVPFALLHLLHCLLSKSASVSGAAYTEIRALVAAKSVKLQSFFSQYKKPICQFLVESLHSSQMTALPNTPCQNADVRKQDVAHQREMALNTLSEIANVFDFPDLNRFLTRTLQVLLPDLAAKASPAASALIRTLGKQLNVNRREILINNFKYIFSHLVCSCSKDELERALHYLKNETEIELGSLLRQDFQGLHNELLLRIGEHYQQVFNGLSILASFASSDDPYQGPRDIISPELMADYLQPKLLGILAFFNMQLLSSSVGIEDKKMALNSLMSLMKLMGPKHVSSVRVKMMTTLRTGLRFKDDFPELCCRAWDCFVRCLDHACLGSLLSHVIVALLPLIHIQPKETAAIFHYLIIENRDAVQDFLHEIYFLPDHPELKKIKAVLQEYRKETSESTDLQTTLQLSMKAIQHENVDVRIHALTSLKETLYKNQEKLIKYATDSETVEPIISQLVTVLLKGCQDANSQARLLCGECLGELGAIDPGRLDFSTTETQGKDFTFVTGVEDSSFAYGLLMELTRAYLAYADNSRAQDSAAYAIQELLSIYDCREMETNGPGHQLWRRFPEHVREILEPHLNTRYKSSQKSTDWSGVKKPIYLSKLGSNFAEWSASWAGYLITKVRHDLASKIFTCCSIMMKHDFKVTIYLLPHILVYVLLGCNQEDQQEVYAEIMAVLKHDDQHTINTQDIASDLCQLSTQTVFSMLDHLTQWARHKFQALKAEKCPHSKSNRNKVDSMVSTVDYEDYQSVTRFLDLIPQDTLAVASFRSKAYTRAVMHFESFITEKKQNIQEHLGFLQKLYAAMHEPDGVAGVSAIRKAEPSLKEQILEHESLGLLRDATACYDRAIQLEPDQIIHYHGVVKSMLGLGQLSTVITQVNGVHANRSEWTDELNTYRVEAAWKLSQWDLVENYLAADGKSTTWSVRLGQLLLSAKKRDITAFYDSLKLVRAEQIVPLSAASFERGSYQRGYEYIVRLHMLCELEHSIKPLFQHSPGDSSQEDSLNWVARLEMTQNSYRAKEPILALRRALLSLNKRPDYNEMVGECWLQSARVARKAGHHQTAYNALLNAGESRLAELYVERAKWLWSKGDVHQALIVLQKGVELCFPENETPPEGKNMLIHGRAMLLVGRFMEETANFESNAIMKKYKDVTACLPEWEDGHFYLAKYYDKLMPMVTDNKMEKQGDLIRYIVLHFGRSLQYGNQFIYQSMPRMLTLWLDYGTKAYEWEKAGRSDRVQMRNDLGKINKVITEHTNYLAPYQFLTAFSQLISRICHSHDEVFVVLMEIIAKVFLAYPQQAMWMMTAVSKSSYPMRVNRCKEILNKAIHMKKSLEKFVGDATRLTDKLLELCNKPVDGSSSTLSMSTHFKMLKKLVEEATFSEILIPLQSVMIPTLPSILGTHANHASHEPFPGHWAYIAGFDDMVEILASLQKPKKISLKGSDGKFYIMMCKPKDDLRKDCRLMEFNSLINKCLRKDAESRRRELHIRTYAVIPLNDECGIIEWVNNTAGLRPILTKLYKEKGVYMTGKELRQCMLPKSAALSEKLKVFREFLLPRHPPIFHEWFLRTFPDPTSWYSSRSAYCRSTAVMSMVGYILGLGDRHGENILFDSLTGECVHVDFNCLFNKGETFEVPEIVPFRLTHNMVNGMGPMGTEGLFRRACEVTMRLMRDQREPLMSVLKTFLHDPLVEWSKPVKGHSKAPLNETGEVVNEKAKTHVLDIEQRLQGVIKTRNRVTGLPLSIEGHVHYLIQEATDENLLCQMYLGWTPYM
Chain of ATR enzyme (Q8WXE1 whole entry partner): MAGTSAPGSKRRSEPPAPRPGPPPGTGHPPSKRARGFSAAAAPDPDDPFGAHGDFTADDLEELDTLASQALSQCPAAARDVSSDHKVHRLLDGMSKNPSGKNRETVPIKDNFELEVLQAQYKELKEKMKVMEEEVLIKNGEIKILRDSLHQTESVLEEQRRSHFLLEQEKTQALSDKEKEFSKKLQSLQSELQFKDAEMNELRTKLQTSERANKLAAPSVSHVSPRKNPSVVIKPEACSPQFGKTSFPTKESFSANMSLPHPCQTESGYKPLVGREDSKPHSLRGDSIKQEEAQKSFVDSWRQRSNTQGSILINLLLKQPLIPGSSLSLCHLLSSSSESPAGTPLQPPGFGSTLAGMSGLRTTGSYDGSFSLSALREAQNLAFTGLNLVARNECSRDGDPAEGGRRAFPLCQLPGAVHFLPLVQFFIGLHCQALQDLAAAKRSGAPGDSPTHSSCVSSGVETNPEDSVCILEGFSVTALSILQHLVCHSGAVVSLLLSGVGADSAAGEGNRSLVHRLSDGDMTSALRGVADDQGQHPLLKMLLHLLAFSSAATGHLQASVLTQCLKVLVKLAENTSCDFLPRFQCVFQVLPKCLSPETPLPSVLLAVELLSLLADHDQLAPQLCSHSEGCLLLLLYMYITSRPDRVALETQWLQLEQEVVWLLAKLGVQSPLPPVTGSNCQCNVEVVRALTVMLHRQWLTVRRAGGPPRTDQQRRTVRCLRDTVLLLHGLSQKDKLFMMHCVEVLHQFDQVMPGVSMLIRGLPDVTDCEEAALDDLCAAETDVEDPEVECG

Structure (SMILES)	IC50 [nM]
C[C@@H]1COCCN1c1cc(C#CC2(O)CCN(c3cccc(F)c3)CC2)c2cnn(-c3ccn[nH]3)c2n1 [Compound 12, (R)-1-(3-fluorophenyl)-4-((6-(3-methylmorpholinyl)-1-(1H-pyrazolyl-5-yl)-1H-pyrazolyl[3,4-b]pyridin-4-yl)ethynyl)piperidin-4-ol]	10 to 50
C[C@@H]1COCCN1c1cc(C#CC2(O)CCC3(CCOCC3)CC2)c2cnn(-c3ccn[nH]3)c2n1 [Compound 14, (R)-9-((6-(3-methylmorpholinyl)-1-(1H-pyrazol-5-yl)-1H-pyrazole[3,4-b]pyridin-4-yl)ethynyl)-3-oxaspiro[5.5]undecan-9-ol]	10 to 50
C#Cc1cc(N2CCOC[C@H]2C)nc2c1cnn2-c1cc[nH]n1 [Example 17]	10 to 50
C[C@@H]1COCCN1c1cc(C#CCN(C)C)c2cnn(-c3cc[nH]n3)c2n1 [Example 18, (R)-N, N-Dimethyl-3-(6-(3-methylmorpholine)-1-(1H-pyrazol-3-yl)-1H-pyrazoline[3,4-b]pyridin-4-yl)propyl-2-yn-1-amine]	10 to 50
C[C@@H]1COCCN1c1cc(C#Cc2ccnc3[nH]ccc23)c2cnn(-c3cc[nH]n3)c2n1 [Example 77]	10 to 50
C[C@@H]1COCCN1c1cc(C#Cc2c[nH]cn2)c2cnn(-c3cc[nH]n3)c2n1 [Example 78]	≤ 10
CC(=O)N1CCC(C#Cc2cc(N3CCOC[C@H]3C)nc3c2cnn3-c2cc[nH]n2)C1 (stereo partly shown) [Example 80]	10 to 50
C[C@@H]1COCCN1c1cc(C#CC2(O)COC2)c2cnn(-c3cc[nH]n3)c2n1 [Example 84]	≤ 10
C[C@@H]1COCCN1c1cc(C#CC(=O)N2CC(O)C2)c2cnn(-c3cc[nH]n3)c2n1 [Example 86]	10 to 50
Cc1cc(-c2cc(N3CCOC[C@H]3C)nc3c2cnn3-c2ccn[nH]2)cc(C)c1N(C)C(=O)c1ccncc1 [Example 184]	≤ 10
C#CC1CC=C(c2cc(N3CCOC[C@H]3C)nc3c2cnn3-c2cc[nH]n2)CC1 (stereo partly shown) [Example 201]	≤ 10
C#CC1CCC(c2cc(N3CCOC[C@H]3C)nc3c2cnn3-c2ccn[nH]2)CC1 (stereo partly drawn) [Example 202, (R)-4-(4-(4-ethynylcyclohexyl)-1-(1H-pyrazol-5-yl)-1H-pyrazolo[3,4-b]pyridin-6-yl)-3-methylmorpholine]	≤ 10
C[C@@H]1COCCN1c1cc(-c2ccc(N3CC4(CCN(Cc5ccccc5)C4)CC3=O)cc2)c2cnn(-c3cc[nH]n3)c2n1 (stereo partly shown) [Example 203]	≤ 10
C[C@@H]1COCCN1c1cc(C#CCN2CC3(CNC3)C2)c2cnn(-c3cc[nH]n3)c2n1 [Example 205]	10 to 50
C[C@@H]1COCCN1c1cc(C#CC2CCCOC2)c2cnn(-c3ccn[nH]3)c2n1 (stereo partly shown) [Example 210]	≤ 10
C[C@@H]1COCCN1c1cc(-c2ccc(NC(=O)NC3CC4CCC(C3)N4)cc2)c2cnn(-c3cc[nH]n3)c2n1 (stereo partly shown) [Example 231]	≤ 10
C[C@@H]1COCCN1c1cc(N2CC(c3ccnn3C)C2)c2cnn(-c3cc[nH]n3)c2n1 [Example 266]	10 to 50
C[C@@H]1COCCN1c1cc(N2CC(c3ccn(C)n3)C2)c2cnn(-c3cc[nH]n3)c2n1 [Example 267]	10 to 50
C[C@@H]1COCCN1c1cc(C2CN(c3ccnn3C)C2)c2cnn(-c3cc[nH]n3)c2n1 [Example 269]	≤ 10
C#CC1CCC(O)(c2cc(N3CCOC[C@H]3C)nc3c2cnn3-c2cc[nH]n2)C1 (stereo partly shown) [Example 270]	≤ 10

Continued, values first:

IC50 [nM]	Structure (SMILES)
≤ 10	C[C@@H]1COCCN1c1cc(-c2ccc(N3C(=O)CCCC3CO)cc2)c2cnn(-c3cc[nH]n3)c2n1 (stereo partly shown) [Example 60]
≤ 10	C[C@@H]1COCCN1c1cc(-c2ccc(NC(=O)CCO)cc2)c2cnn(-c3cc[nH]n3)c2n1 [Example 152]
≤ 10	C[C@@H]1COCCN1c1cc(-c2ccc(NC(=O)C3CNC3)cc2)c2cnn(-c3cc[nH]n3)c2n1 [Example 156]
≤ 10	C[C@@H]1COCCN1c1cc(-c2ccc(N(C)C(=O)N3CCCC3)cc2F)c2cnn(-c3cc[nH]n3)c2n1 [Example 192]
≤ 10	C[C@@H]1COCCN1c1cc(-c2ccc(N3CCCC3=O)cc2)c2cnn(-c3cc[nH]n3)c2n1 [Example 212]
10 to 50	CC(=O)Nc1ccccc1-c1cc(N2CCOC[C@H]2C)nc2c1cnn2-c1cc[nH]n1 [Example 220]
≤ 10	C[C@@H]1COCCN1c1cc(-c2ccc(N(C)C(=O)N3CCCC3)cc2)c2cnn(-c3cc[nH]n3)c2n1 [Example 223]
≤ 10	C[C@@H]1COCCN1c1cc(-c2ccc3c(c2)CCCN3C(=O)c2cccnc2)c2cnn(-c3cc[nH]n3)c2n1 [Example 225]
10 to 50	C[C@@H]1COCCN1c1cc(-c2ccc(N(C)C(=O)N3CCCC3)nc2)c2cnn(-c3cc[nH]n3)c2n1 [Example 227]
≤ 10	C[C@@H]1COCCN1c1cc(-c2ccc(NC(=O)N3CCCCC3)cc2)c2cnn(-c3cc[nH]n3)c2n1 [Example 229]
10 to 50	C[C@@H]1COCCN1c1cc(-c2ccc(N(C)C(=O)N3CCCCC3)cc2)c2cnn(-c3cc[nH]n3)c2n1 [Example 230]
10 to 50	C[C@@H]1COCCN1c1cc(-c2ccc(NC(=O)C34CC5CC(CC(C5)C3)C4)cc2)c2cnn(-c3cc[nH]n3)c2n1 [Example 232]
10 to 50	COc1cc(-c2cc(N3CCOC[C@H]3C)nc3c2cnn3-c2cc[nH]n2)ncc1NC(=O)N1CCCC1 [Example 247]
10 to 50	COc1cc(NC(=O)N2CCCC2)ncc1-c1cc(N2CCOC[C@H]2C)nc2c1cnn2-c1cc[nH]n1 [Example 248]
≤ 10	C[C@@H]1COCCN1c1cc(-c2ccc(NC(=O)N3CCCC3)cn2)c2cnn(-c3cc[nH]n3)c2n1 [Example 249]
10 to 50	C[C@@H]1COCCN1c1cc(-c2cc(NC(=O)C3CC3)[nH]n2)c2cnn(-c3cc[nH]n3)c2n1 [Example 253]
10 to 50	C[C@@H]1COCCN1c1cc(C2CN(C(=O)NC3CC3)C2)c2cnn(-c3cc[nH]n3)c2n1 [Example 268]

tested on: SNU-601 cells; assay: SNU-601 cell proliferation experiment (CellTiter-Glo, intracellular ATP); assay type: cell-based; conditions: 120 h; SNU-601 human gastric cancer cells, 5 days; read-out: IC50 for inhibition of SNU-601 cell proliferation
Method: The following method is used to evaluate the inhibitory effect of the compounds of the present disclosure on SNU-601 cell proliferation according to the IC50 values by means of detecting the intracellular ATP content. The experimental method is briefly described as follows:
1. SNU-601, human gastric cancer tumor cells (Co-bioer, CBP60507)
SNU-601 cells were cultured in RPMI 1640 medium containing 10% FBS and passaged 2 to 3 times a week at a split ratio of 1:5 or 1:10. During passage, the cells were trypsinized and transferred to a centrifuge tube. The tube was centrifuged at 1000 rpm for 5 minutes, the supernatant medium was discarded, and fresh medium was added to resuspend the cells. 195 μL of cell suspension at a density of 5.128×10^3 cells/mL was added to a 96-well cell culture plate, and 200 μL of complete medium only was added to the periphery wells of the 96-well plate. The culture plate was incubated in an incubator for 24 hours (37° C., 5% CO2).
The sample to be tested was diluted to 2 mM with DMSO, diluted 3-fold serially to 10 concentrations. Blank and control wells were set. 10 μL of the solution containing the compound to be tested prepared in gradient concentrations was added to 50 μL of fresh medium. 5 μL of the above culture medium solution containing the compound was added to the culture plate. The culture plate was incubated in an incubator for 5 days (37° C., 5% CO2). 50 μL of CellTiter-Glo reagent was added to each well of the 96-well cell culture plate after discarding 100 μL/well, and the plate was shaken at room temperature in the dark for 10 min. The chemiluminescent signal values were read in PHERAstar, and data were processed using GraphPad software.
The inhibitory effect of the compounds of the present invention on SNU-601 cell proliferation can be determined by the test described above, and the measured IC50 values are shown in Table 3.

IC50 [nM]	Structure (SMILES)
10 to 100	C[C@@H]1COCCN1c1cc(-c2ccc(N3CC4CCC(O4)C3=O)cc2)c2cnn(-c3cc[nH]n3)c2n1 (stereo partly shown) [Example 65]
10 to 100	CCC(CC)C(=O)Nc1ccc(-c2cc(N3CCOC[C@H]3C)nc3c2cnn3-c2cc[nH]n2)cc1 [Example 151]
10 to 100	C[C@@H]1COCCN1c1cc(-c2ccc(N3CCCCCC3=O)cc2)c2cnn(-c3cc[nH]n3)c2n1 [Example 153]
10 to 100	C[C@@H]1COCCN1c1cc(-c2ccc(NC(=O)C3CCOCC3)cc2)c2cnn(-c3cc[nH]n3)c2n1 [Example 155]
10 to 100	C[C@@H]1COCCN1c1cc(-c2ccc(NC(=O)c3ccccc3)cc2)c2cnn(-c3cc[nH]n3)c2n1 [Example 163]
10 to 100	C[C@@H]1COCCN1c1cc(-c2ccc(NC(=O)c3ccncn3)cc2)c2cnn(-c3cc[nH]n3)c2n1 [Example 165]
10 to 100	C[C@@H]1COCCN1c1cc(-c2ccc(N3CCCCC3=O)nc2)c2cnn(-c3cc[nH]n3)c2n1 [Example 167]
10 to 100	C[C@@H]1COCCN1c1cc(-c2ccc(N3CCCCC3=O)c(C#N)c2)c2cnn(-c3cc[nH]n3)c2n1 [Example 169]
10 to 100	C[C@@H]1COCCN1c1cc(-c2ccc3c(c2)CCN3C(=O)c2ccncc2)c2cnn(-c3cc[nH]n3)c2n1 [Example 183]
10 to 100	C[C@@H]1COCCN1c1cc(-c2ccc(N3CCCCC3=O)c(F)c2)c2cnn(-c3cc[nH]n3)c2n1 [Example 191]
10 to 100	C[C@@H]1COCCN1c1cc(-c2ccc(NC(=O)c3cccnc3)cc2F)c2cnn(-c3cc[nH]n3)c2n1 [Example 195]

same assay, conditions: SNU-601 human gastric cancer cells, 5 days; read-out: IC50 for inhibition of SNU-601 cell proliferation

IC50 [nM]	Structure (SMILES)
10 to 100	C[C@@H]1COCCN1c1cc(C#CC2(C#N)CCCNC2)c2cnn(-c3cc[nH]n3)c2n1 (stereo partly shown) [Example 82]
